# Values quoted from earlier work, collected in patent US7129073B2, “Regulation of neuronal function through metabotropic glutamate receptor signaling pathways” (The Rockefeller University, priority 2001, dated 2006).
# Biological target: T1, T-cell protein-tyrosine phosphatase (TC PTP) (Homo sapiens, UniProt P17706)
# T1 sequence (P17706 1-415): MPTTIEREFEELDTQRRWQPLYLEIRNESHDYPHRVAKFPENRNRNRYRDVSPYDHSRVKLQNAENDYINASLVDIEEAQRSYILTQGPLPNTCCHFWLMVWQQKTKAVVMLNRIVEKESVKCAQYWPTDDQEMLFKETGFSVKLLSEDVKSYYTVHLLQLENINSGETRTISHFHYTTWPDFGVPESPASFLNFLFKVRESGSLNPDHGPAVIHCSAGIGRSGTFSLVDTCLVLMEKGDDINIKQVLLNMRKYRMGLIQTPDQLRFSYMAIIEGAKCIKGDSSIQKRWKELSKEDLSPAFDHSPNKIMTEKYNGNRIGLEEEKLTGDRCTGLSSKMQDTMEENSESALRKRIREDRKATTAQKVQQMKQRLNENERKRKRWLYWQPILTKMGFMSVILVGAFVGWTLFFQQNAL
# Details: cited from earlier work
smiles,measurement,setting,value
[Na+].[Na+].[Na+].[O]=[V]([O-])([O-])[O-] [Na3VO4],effect on TC PTP-dependent change in polarization,50 μM Na3VO4,inhibited
same,IC50,FP-based direct binding assay,4 nM
